Row | Compound | melting point [°C]
1 | FC(F)(F)c1cc(Oc2cc(Oc3ccc(Cl)c(C(F)(F)F)c3)ncn2)ccc1Cl | 111
2 | CCCCCCCCC[C@]1(C)OO[C@@H]2C[C@H]1CC(=O)[C@@H]2C | 39
3 | CCCc1cc(NC(=O)N2CCN(c3cc(OC)cc(OC)c3)CC2)c(OC)nc1C | 82 to 84
4 | CCOC(=O)c1ncc2[nH]c3ccc(CC)cc3c2c1C | 158 to 163
5 | Nc1ncnc2c1nc(Sc1cc3c(cc1Br)OCO3)n2CCCCCC(=O)NO | 160 to 169
6 | Cn1c(C(F)(F)F)cc(=O)n(-c2cc([N+](=O)[O-])c(Br)cc2F)c1=O | 124 to 125
7 | CCc1ccc(C(=O)O)c(O)n1 | 190 to 193
8 | N#CC(=NO)c1cc(F)ccc1F | 64 to 67
9 | COc1cccc2cc(SCCC(=O)O)n(C)c12 | 120 to 122
10 | CC1(C)Cc2cc(O)c(Cl)c(Cl)c2C1=O | 273
11 | O=c1[nH]c(=O)n([C@@H]2CO[C@H](CO)[C@@H](O)C2)cc1I | 219 to 220
12 | CC1CN(C(P(=O)(O)O)P(=O)(O)O)CC(C)S1 (centres undefined) | 219 to 220
13 | CSCCCn1cc(C(Cc2ccccc2Br)=NO)c2ccc(Cl)c(Cl)c21 | 139 to 142
14 | CCCCN(CCCC)Cc1nc(-c2ncn3c2CN(C)C(=O)c2c(Cl)cccc2-3)no1 | 140 to 142
15 | Cn1cc(OS(C)(=O)=O)c(=O)c2ccc(S(C)=O)cc21 (centres undefined) | 248
16 | COc1ccc(COc2cccnc2NC(=N)Nc2ccc(Cl)cc2)c(F)c1 | 158 to 161
17 | COc1cccc(S(=O)(=O)Nc2ccc(Cl)nc2I)c1 | 154
18 | CC(C)(C)OC(=O)[C@H]1CC[C@@H](NC(=O)OCc2ccccc2)CC1 | 73 to 74
19 | O=C(OCCCc1ccc(OCc2ccc(Cl)cc2)cc1)c1cccnc1 | 109 to 110
20 | O=C(O)CS(=O)(=O)C12CC3CC(CC(C3)C1)C2 | 158 to 162
21 | CCCCOc1c(CNC(=O)OC(C)(C)C)n(CC(C)C)c(=O)c2ccc(-c3noc(=O)[nH]3)cc12 | 223 to 224

Row | Compound | melting point [°C]
22 | Cc1cc2c(N)c(C(=O)c3cc(F)ccc3F)sc2nc1C | 188
23 | CC1c2cc(OCC(=O)O)c(Cl)c(Cl)c2C(=O)C1(C)Cl (centres undefined) | 179 to 187
24 | CCc1n[nH]c(CC)c1CCCCCCOc1ccccc1 | 119 to 121
25 | Nc1nc2c(c(=O)[nH]1)S[C@H](CCc1ccc(C(=O)O)s1)CN2 | 283 to 285
26 | CCOC(=O)C1=C(C)Nc2nc(N3CCOCC3)nc(N3CCOCC3)c2C1c1cccs1 (centres undefined) | 205
27 | CCOc1ccc2c(c1)n(C1CCOCC1)c(=O)n2Cc1ccc(NC(=O)N(CC)CC)cc1OC | 168
28 | N#CC1=C(C2CC2)Nc2n[nH]cc2C1c1ccccc1Br (centres undefined) | > 250
29 | CCOC(=O)C(=CNC1CC1)C(=O)c1cc(F)c(F)c(F)c1F | 63 to 65
30 | Cn1c2c(c3cc(F)ccc31)C(=O)NCC2 | 200 to 202
31 | COc1ccccc1CNc1ccc2cc(Nc3nc4cc(C)ccc4o3)ccc2n1 | 220
32 | CCCCCCCCCCCCCCCCCCN1C(=O)CCC1=O | 75.8
33 | Cc1cc(NC2CCCCC2)c2[nH]ncc2n1 | 287 to 289
34 | CON=C(C(=O)O)c1cc2sccc2s1 | 116 to 117
35 | CCOP(=O)(Cc1cc(C(C)(C)C)c(O)c(C(C)(C)C)c1)OCC | 114
36 | Nc1ncc(CN2CC=C(c3ccc(F)cc3)CC2)c(N)n1 | 265
37 | COC(=O)c1sc2ccc(N)cc2c1N | 128 to 130
38 | CC1(C)Cc2nc(N)sc2C(C)(C)C1 | 120 to 122
39 | CCOC(=O)c1c2n(c3cc(Br)c(F)cc3c1=O)CCS2 | 258 to 262
40 | CC(=O)NC(C(=O)O)C(c1ccc(F)cc1)c1ccc(F)cc1 (centres undefined) | 187
41 | CC(C)(C)OC(=O)N1CCC(Oc2c(F)cc3c(=O)c(C(=O)O)cn(C4CC4)c3c2F)C1 (centres undefined) | 158 to 160
42 | CCCCOc1ccc2c(C(F)(F)F)c(OC)ccc2c1C(=O)N(C)CC(=O)O | 152 to 155

Row | Compound | melting point [°C]
43 | Cn1cc(C(=O)NCc2ccc(F)cc2)c(=O)c2cc(CN3CCOCC3)sc21 | 214 to 216
44 | CCCCC(CC)COc1cccc(N2C(C)=CC(=C=C3C(C#N)C(=C(C#N)C#N)OC3(C)C)C=C2C)c1 (centres undefined) | 181
45 | CCC(=O)NCC(C)(C)c1ccc(C(=O)Nc2cn3cc(Cl)ccc3n2)cc1 | 225 to 227
46 | COc1ccc(CCN(C)CCc2ccc(NC(=O)c3cccc4c(=O)c5ccccc5[nH]c34)cc2)cc1OC | 180
47 | CSc1cc(C(C)(C)C)c(O)c(C(=O)Nc2ccc(S(=O)(=O)C(F)(F)F)cc2Cl)c1C | 156
48 | COc1cc(NC(=O)C#Cc2ccc(C(F)(F)F)cc2Cl)ccc1OCCN1CC(C)CC(C)C1 (centres undefined) | 196 to 201
49 | CCc1nc2c(cnn2CC)c(NC2CCOCC2)c1CNC(=O)c1cccc(C(=O)NCc2cc(Cl)cc(Br)c2)c1 | 109 to 112
50 | CCS(=O)(=O)c1cc(C(=O)Cl)c(OC)cc1Cl | 115 to 117
51 | CS(=O)c1ccc(CSc2nc(-c3ccc(F)cc3)c(-c3ccnc(Cl)c3)[nH]2)cc1 (centres undefined) | 179
52 | COc1cc2c(cc1C)CCN=C2C1(C2C=CCCC2)CCC1 (centres undefined) | 70 to 73
53 | CCOC(=O)C(=CNC1CC1)C(=O)c1cc(Cl)c(F)c(F)c1F | 71 to 73
54 | Cc1c(Br)cccc1NS(=O)(=O)c1cc(S(=O)(=O)Nc2cccc(Br)c2C)c2cc(O)ccc2c1 | 129 to 131
55 | CCCCc1nc(C(C)(C)O)c(C(=O)OCOC(=O)C(C)(C)C)n1Cc1ccc(-c2ccccc2C(=O)O)cc1 | 139 to 144
56 | Cc1ccnc2c1C(=O)CC(c1cc(Cl)sc1Cl)C2 (centres undefined) | 130 to 131
57 | CC(C)(C)OC(=O)N(Cc1ccc(C2CCCCC2)cc1)c1nc(Oc2ccc(F)cc2)c2ncn(CC(=O)O)c2n1 | 119 to 133
58 | CCOc1ncc(C(=O)O)c2c(N)cccc12 | 159 to 165
59 | COP(=O)(Cc1cccc(CP(=O)(OC)OC)c1F)OC | 116 to 118
60 | N#CC1C(=O)NC(=O)C(C#N)C12CCN(Cc1ccccc1)CC2 (centres undefined) | 179 to 181
61 | Cn1c2cc(Cl)ncc2c(=O)n2nccc12 | > 300

Second part, the compound after the results:

Row | melting point [°C] | Compound
62 | 225 to 227 | CCNc1nnc2ccc(-c3cccc(N(C)C(C)=O)c3)nn12
63 | 198 to 199 | CCCc1ccccc1OCCCOc1ccc2c(=O)cc(C(=O)O)oc2c1CC
64 | 187 to 189 | O=C1CCC(c2c(-c3ccccc3)nn3ccccc23)=NN1
65 | 117 to 118 | OC(CCc1ccccc1)c1cnc2sc3c(n12)CCC3 (centres undefined)
66 | 224 to 226 | CC(C)(C)CNc1nc(-c2[nH]c(C(C)(C)C)nc2-c2ccccc2)ccc1[N+](=O)[O-]
67 | 118 to 119 | C/C(=C\Cn1oc(=O)[nH]c1=O)c1cccc(OCc2nc(-c3ccccc3)oc2C)c1
68 | 145 to 146 | O=C(Nc1ccccc1O)c1cccnc1Cl
69 | 163 to 167 | O=S1(=O)Cc2ccc(F)cc2C(c2ccc(F)cc2)=NN1CCCc1ccccc1
70 | 250 | Oc1ccc2c(-c3ccco3)nn(Cc3ccccc3F)c2n1
71 | 88 to 90 | COC(=O)c1ccc(OCCNC(=O)OCc2ccccc2)cc1Cl
72 | 145 to 155 | CCc1cccc(NC(=O)NC2CC(C3CCCCC3)c3ccccc3N(CC(=O)NC(C)(C)C)C2=O)c1 (centres undefined)
73 | 250 to 251 | COc1cccc(C(=O)Nc2ccc(CN3C(=O)[C@H]4CCC[C@H]4N(C(=O)CN4C(=O)c5ccccc5C4=O)c4ccccc43)cc2)c1 (relative stereo)
74 | 188 to 189 | Cn1ncc(/C=C/C(=O)Nc2ccc(CC(C)(C)O)cc2)c1-c1ccc(F)cc1
75 | 68 to 69 | Cc1c(Cl)cc(C(C)(C)C)c(O)c1C(=O)Oc1ccccc1
76 | 122 to 123 | CN1CCC(Oc2cc(Cl)ccc2C(N)=O)C1 (centres undefined)
77 | 123 to 125 | Cc1ccccc1Sc1cccc(C(C)C(=O)O)c1O (centres undefined)
78 | 191 to 193 | CN1N=C2C(=Cc3ccccc3)CN(C(N)=O)CC2C1c1ccccc1 (centres undefined)
79 | 160 | O=C(O)CCc1nc(-c2ccccc2)cc2ccccc12
80 | 174 to 176 | O=C(C=C1c2ccccc2-c2ccccc21)NCCCCCC(=O)NO

Row | melting point [°C] | Compound
81 | 207 to 210 | O=C(O)CN1C(=O)[C@@H](N[C@@H](CCC2CCCCC2)C(=O)O)CSc2ccccc21
82 | 157 to 160 | O=C(c1ccc(-n2nc(-c3ccccc3O)nc2-c2ccccc2O)cc1)N1CCOCC1
83 | 201 to 202 | CCOC(=O)Cc1nn2c(-c3ccc(OC)cc3)nnc2c2ccccc12
84 | 131 to 132 | CN1CCC(=C2c3ccccc3COc3ccc(Br)cc32)CC1
85 | 167 to 168 | NC(=O)[C@@H]1CCCc2cc(Sc3ccccc3)cc(F)c21
86 | 271 to 274 | O=c1c2c(Cc3ccc(F)cc3)n[nH]c2c2cccnc2n1-c1ccccc1
87 | 50 to 52 | CC(C)(C)OC(=O)NCCCc1ccccc1OCc1ccccc1
88 | 136 to 137 | CCOC(=O)/C=C/c1c(-c2ccc(F)cc2)n(CCF)c(=O)c2ccccc12
89 | 112 to 115 | O=C(SCCCN1C(=O)NCC1c1ccccc1)c1ccccc1 (centres undefined)
90 | 207 to 209 | C=Cc1ccc(CSc2ccccc2C(=O)O)cc1
91 | 82 | CN1CCC(c2c(O)cc(O)c3c(=O)cc(Sc4ccccc4)oc23)C(O)C1 (centres undefined)
92 | 164 | Clc1cccnc1-c1ccc2[nH]nc(Nc3ccccn3)c2c1
93 | 98 to 99 | Cn1c(-c2c(F)cccc2F)nn(-c2ccccc2C(F)(F)F)c1=O
94 | 152 to 155 | CCOC(=O)CNC(=O)c1nnc2ccc(NCCCN3CCC(OC(c4ccccc4)c4ccccc4)CC3)nn12
95 | 123 to 124 | O=c1ccn(-c2ccccc2OC(F)F)nc1-c1ccnn1-c1ccccc1
96 | 86 to 87 | Nc1nccc(OCCc2ccccc2)c1N
97 | 216 to 218 | O=c1nc(-c2ccccc2)c2cc([N+](=O)[O-])sc2n1CC1CC1
98 | 154 to 157 | Oc1ccccc1C=Nc1ccc(O)c2ccccc12
99 | 272 | COc1cc(C2Cc3ccccc3-c3nc(N)c4ccccc4c32)cc(OC)c1OC (centres undefined)
